Experimental findings from patent publication US9376436B2, “2-(pyridin-2yl)-1, 7-diaza-spiro [4.4] nonane-6-one compound as voltage-gated sodium channels modulators” (CONVERGENCE PHARMACEUTICALS LIMITED, priority 2011, dated 2016) are described below.

Structures can show the parent of a compound that is named as a salt. Where two headings read alike, the source gives them in different places.

For this test, the target named is T1, hNaV1.7 (Homo sapiens, UniProt Q15858).
T1 construct: expressed in transfected cells; host or cells: HEK293
Kind of test: QPatch NaV1.7 assay (whole-cell patch clamp, QPatch16x). Particulars: HEK293-hNaV1.7 cells. In kind it is cell-based. The method in brief: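 HEK293 cells expressing hNaV1.7 recorded by automated whole-cell patch clamp (CsF internal, pH 7.3). Peak currents from 20 ms steps to 0 mV measured at holding potentials of −90 mV and V1/2 SSI; four-point cumulative concentrations, 120 s each, Hill fits gave pIC50 at each potential.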

[1] abbreviates: holding voltage V1/2 SSI (half of channels inactivated), read-out: QP Nav1.7 SSI vhalf pIC50 (converted).
The mark [2] stands for this setting: holding voltage −90 mV (most channels closed), read-out: QP Nav1.7 −90 mV pIC50 (converted).

T1 sequence (Q15858 whole entry): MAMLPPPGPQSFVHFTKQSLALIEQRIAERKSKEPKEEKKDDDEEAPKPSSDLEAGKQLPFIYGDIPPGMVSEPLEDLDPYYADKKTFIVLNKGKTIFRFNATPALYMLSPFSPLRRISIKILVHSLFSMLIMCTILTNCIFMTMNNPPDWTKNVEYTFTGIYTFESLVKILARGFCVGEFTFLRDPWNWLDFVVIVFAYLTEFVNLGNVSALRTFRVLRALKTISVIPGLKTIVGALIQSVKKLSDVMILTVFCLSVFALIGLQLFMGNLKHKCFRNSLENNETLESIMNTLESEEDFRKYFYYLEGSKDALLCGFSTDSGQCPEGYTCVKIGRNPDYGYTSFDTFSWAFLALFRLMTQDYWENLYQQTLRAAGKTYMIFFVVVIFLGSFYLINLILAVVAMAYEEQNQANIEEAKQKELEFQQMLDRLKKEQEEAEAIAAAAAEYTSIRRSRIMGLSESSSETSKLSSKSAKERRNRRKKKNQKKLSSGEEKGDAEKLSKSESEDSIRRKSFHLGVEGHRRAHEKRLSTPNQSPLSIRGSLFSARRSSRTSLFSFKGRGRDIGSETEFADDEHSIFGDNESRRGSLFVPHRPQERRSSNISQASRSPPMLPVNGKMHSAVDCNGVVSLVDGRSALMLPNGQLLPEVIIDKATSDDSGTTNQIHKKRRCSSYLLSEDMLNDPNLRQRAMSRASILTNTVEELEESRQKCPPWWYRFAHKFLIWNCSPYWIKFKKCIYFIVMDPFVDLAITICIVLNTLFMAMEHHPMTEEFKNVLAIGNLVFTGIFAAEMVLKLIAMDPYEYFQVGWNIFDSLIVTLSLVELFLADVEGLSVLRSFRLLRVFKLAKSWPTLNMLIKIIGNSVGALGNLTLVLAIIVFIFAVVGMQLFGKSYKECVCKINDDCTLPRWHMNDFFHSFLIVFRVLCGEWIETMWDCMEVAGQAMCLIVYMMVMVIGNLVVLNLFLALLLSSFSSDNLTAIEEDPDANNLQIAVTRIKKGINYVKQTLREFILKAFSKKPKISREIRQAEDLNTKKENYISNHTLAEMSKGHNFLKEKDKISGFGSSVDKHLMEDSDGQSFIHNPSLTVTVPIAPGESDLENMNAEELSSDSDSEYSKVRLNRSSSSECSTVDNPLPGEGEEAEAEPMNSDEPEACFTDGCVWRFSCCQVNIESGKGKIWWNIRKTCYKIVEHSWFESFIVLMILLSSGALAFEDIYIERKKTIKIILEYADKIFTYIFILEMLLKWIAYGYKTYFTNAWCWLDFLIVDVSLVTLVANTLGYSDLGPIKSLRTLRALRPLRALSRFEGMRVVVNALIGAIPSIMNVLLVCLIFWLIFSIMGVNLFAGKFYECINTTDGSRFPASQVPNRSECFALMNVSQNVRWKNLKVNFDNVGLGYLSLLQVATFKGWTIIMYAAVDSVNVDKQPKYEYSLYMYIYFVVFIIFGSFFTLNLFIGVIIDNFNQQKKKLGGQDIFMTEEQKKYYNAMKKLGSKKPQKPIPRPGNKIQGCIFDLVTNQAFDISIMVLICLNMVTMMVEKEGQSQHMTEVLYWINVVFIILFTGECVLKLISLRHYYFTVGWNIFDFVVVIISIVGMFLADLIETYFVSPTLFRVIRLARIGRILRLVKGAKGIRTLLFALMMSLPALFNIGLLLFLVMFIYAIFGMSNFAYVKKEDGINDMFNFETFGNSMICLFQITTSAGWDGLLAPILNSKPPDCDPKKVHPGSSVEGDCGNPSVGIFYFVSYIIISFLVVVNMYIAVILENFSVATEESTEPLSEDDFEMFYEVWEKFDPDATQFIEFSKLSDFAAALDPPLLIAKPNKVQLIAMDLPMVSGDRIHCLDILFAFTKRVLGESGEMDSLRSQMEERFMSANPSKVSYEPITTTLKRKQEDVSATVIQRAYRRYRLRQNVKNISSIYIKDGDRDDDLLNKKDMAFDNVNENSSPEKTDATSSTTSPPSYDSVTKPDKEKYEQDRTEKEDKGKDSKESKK

As to `O=C1NCC[C@]12CC[C@@H](c1cc(-c3cccc(OC(F)(F)F)c3)ccn1)N2` [Example 116, (2S,5R)-2-[4-[3-(Trifluoromethoxy)phenyl]-2-pyridyl]-1,7-diazaspiro[4.4]nonan-6-one hydrochloride], the IC50 is 10 µM under setting [1] and 79.4 µM under setting [2].

In the case of `CCOc1ccc(F)c(-c2ccnc([C@@H]3CC[C@]4(CCN(C)C4=O)N3)c2C)c1` [Example 213, (2S,5R)-2-[4-(5-Ethoxy-2-fluoro-phenyl)-3-methyl-2-pyridyl]-7-methyl-1,7-diazaspiro[4.4]nonan-6-one hydrochloride], the IC50 was 6.31 µM under setting [1] and 63.1 µM under setting [2].

Consider `Cc1ccnn1-c1ccc(F)c(-c2ccnc([C@H]3CC[C@@]4(CCN(C)C4=O)N3)c2)c1` [Example 193, (2R,5S)-2-[4-[2-Fluoro-5-(5-methylpyrazol-1-yl)phenyl]-2-pyridyl]-7-methyl-1,7-diazaspiro[4.4]nonan-6-one hydrochloride], for which the IC50 by setting is: under setting [1], 50.1 µM; under setting [2], 5010 µM.

Turning to `CCOc1ccc(F)c(-c2cc([C@@H]3CC[C@]4(CCN(C)C4=O)N3)nc(C)c2C)c1` [Example 143, (2S,5R)-2-[4-(5-Ethoxy-2-fluoro-phenyl)-5,6-dimethyl-2-pyridyl]-7-methyl-1,7-diazaspiro[4.4]nonan-6-one hydrochloride], the IC50 by setting is: under setting [1], 10 µM; under setting [2], 63.1 µM.

Take `Cc1cc(C)c(-c2ccnc([C@H]3CC[C@@]4(CCN(C)C4=O)N3)c2)c(C)c1` [Example 2, (2R,5S)-7-Methyl-2-[4-(2,4,6-trimethylphenyl)-2-pyridyl]-1,7-diazaspiro-[4.4]nonan-6-one hydrochloride]: the IC50 under setting [1] is 20 µM and the IC50 under setting [2] is 200 µM.

With `CCOc1ccc(F)c(-c2cc([C@H]3CC[C@]4(CCN(C)C4=O)N3)ncc2C)c1` [Example 140, (2R,5R)-2-[4-(5-Ethoxy-2-fluoro-phenyl)-5-methyl-2-pyridyl]-7-methyl-1,7-diazaspiro[4.4]nonan-6-one hydrochloride], the IC50 was 31.6 µM under setting [1] and 100 µM under setting [2].

With `CN1[C@H](c2cc(-c3ccc(C(F)(F)F)cc3)ccn2)CC[C@]12CCCNC2=O` [Example 230, hydrochloride], the IC50 by setting is: under setting [1], 1.26 µM; under setting [2], 25.1 µM.

`CCOc1cc(-c2ccnc([C@H]3CC[C@@]4(CCN(C)C4=O)N3)c2)c(F)cc1F` [Example 149, (2R,5S)-2-[4-(5-Ethoxy-2,4-difluoro-phenyl)-2-pyridyl]-7-methyl-1,7-diazaspiro[4.4]nonan-6-one hydrochloride]: the IC50 was 25.1 µM under setting [1] and 398 µM under setting [2].

In the case of `CCOc1ccc(F)c(-c2ccnc([C@@H]3CC[C@]4(CCCNC4=O)N3)c2)c1` [Example 106, (2S,5S)-2-[4-(5-Ethoxy-2-fluoro-phenyl)-pyridin-2-yl]-1,7-diaza-spiro[4.5]decan-6-one hydrochloride], the IC50 under setting [1] was 2 µM and the IC50 under setting [2] is 5.01 µM.

In the case of `COCc1ccc(F)c(-c2ccnc([C@H]3CC[C@@]4(CCN(C)C4=O)N3)c2)c1` [Example 188, (2R,5S)-2-[4-[2-Fluoro-5-(methoxymethyl)phenyl]-2-pyridyl]-7-methyl-1,7-diazaspiro[4.4]nonan-6-one hydrochloride], the IC50 under setting [1] was 100 µM and the IC50 under setting [2] was 501 µM.

`Cc1cc(-c2ccc(C(F)(F)F)cc2)cc([C@@H]2CC[C@@]3(CCNC3=O)N2C)n1` [Example 226, (2S,5S)-1-Methyl-2-[6-methyl-4-[4-(trifluoromethyl)phenyl]-2-pyridyl]-1,7-diazaspiro[4.4]nonan-6-one hydrochloride]: the IC50 is 12.6 µM under setting [1] and 1580 µM under setting [2].

Consider `CCOc1ccc(F)c(-c2ccnc([C@@H]3CC[C@]4(CCN(C)C4=O)N3)c2)c1` [Example 145, (2S,5R)-2-[4-(5-Ethoxy-2-fluoro-phenyl)-2-pyridyl]-7-methyl-1,7-diazaspiro[4.4]nonan-6-one hydrochloride], for which the IC50 is, setting by setting: under setting [1], 6.31 µM; under setting [2], 79.4 µM.

Turning to `CN1CC[C@@]2(CC[C@@H](c3cc(-c4ccc(C(F)(F)F)cc4)ccn3)N2)C1=O` [Example 53, (2S,5S)-7-Methyl-2-[4-(4-trifluoromethyl-phenyl)-pyridin-2-yl]-1,7-diaza-spiro[4.4]nonan-6-one hydrochloride], the IC50 under setting [1] was 39.8 µM and the IC50 under setting [2] was 100 µM.

`CCOc1cc(-c2cc(C)nc([C@@H]3CC[C@]4(CCN(C)C4=O)N3)c2)ccc1F` [Example 123, (2S,5R)-2-[4-(3-Ethoxy-4-fluoro-phenyl)-6-methyl-2-pyridyl]-7-methyl-1,7-diazaspiro[4.4]nonan-6-one hydrochloride]: the IC50 under setting [1] was 39.8 µM and the IC50 under setting [2] was 251 µM.

With `CCOc1cc(-c2cc(C)nc([C@H]3CC[C@@]4(CCN(C)C4=O)N3)c2)ccc1F` [Example 125, hydrochloride], the IC50 was 25.1 µM under setting [1] and 158 µM under setting [2].

On to `Cc1cc(-c2cc(C(F)(F)F)ccc2C#N)cc([C@@H]2CC[C@]3(CCN(C)C3=O)N2)n1` [Example 21, 2-[2-Methyl-6-[(2S,5R)-7-methyl-6-oxo-1,7-diazaspiro[4.4]-nonan-2-yl]-4-pyridyl]-4-(trifluoromethyl)-benzonitrile hydrochloride], for which the IC50 by setting is: under setting [1], 31.6 µM; under setting [2], 794 µM.

Consider `CCOc1ccc(-c2ccnc([C@H]3CC[C@@]4(CCN(C)C4=O)N3)c2)cc1OCC` [Example 190, (2R,5S)-2-[4-(3,4-Diethoxyphenyl)-2-pyridyl]-7-methyl-1,7-diazaspiro[4.4]nonan-6-one hydrochloride], for which the IC50 was 100 µM under setting [1] and 10000 µM under setting [2].

Turning to `CCOc1ccc(F)c(-c2cc([C@@H]3CC[C@@]4(CCN(C)C4=O)N3)nc(C)c2C)c1` [Example 142, (2S,5S)-2-[4-(5-Ethoxy-2-fluoro-phenyl)-5,6-dimethyl-2-pyridyl]-7-methyl-1,7-diazaspiro[4.4]nonan-6-one hydrochloride], the IC50 was 0.794 µM under setting [1] and 15.8 µM under setting [2].

Consider `CCS(=O)(=O)c1ccc(-c2cc(C)nc([C@@H]3CC[C@]4(CCN(C)C4=O)N3)c2)cc1` [Example 210, (2S,5R)-2-[4-(4-Ethylsulfonylphenyl)-6-methyl-2-pyridyl]-7-methyl-1,7-diazaspiro[4.4]nonan-6-one hydrochloride], for which, under setting [1], the IC50 is 398 µM.

Take `COc1cc(C(F)(F)F)ccc1-c1cc([C@@H]2CC[C@]3(CCN(C)C3=O)N2)ncc1C` [Example 129, (2S,5R)-2-[4-[2-Methoxy-4-(trifluoromethyl)phenyl]-5-methyl-2-pyridyl]-7-methyl-1,7-diazaspiro[4.4]nonan-6-one hydrochloride]: the IC50 under setting [1] is 20 µM and the IC50 under setting [2] was 200 µM.

On to `Cc1cc(-c2ccc(F)cc2)cc([C@H]2CC[C@@]3(CCN(C)C3=O)N2)n1` [Example 57, (2R,5S)-2-[4-(4-Fluorophenyl)-6-methyl-2-pyridyl]-7-methyl-1,7-diazaspiro[4.4]nonan-6-one hydrochloride], for which the IC50 was 3.98 µM under setting [1] and 79.4 µM under setting [2].

On to `CN1CC[C@]2(CC[C@H](c3cc(-c4ccc(C(F)(F)F)cc4)c(F)cn3)N2)C1=O` [Example 61, (2R,5R)-2-[5-Fluoro-4-[4-(trifluoromethyl)phenyl]-2-pyridyl]-7-methyl-1,7-diazaspiro[4.4]nonan-6-one hydrochloride], for which the IC50 reads like this: under setting [1], 6.31 µM; under setting [2], 100 µM.
